{
  "source": "paper PMC5346991",
  "about": "(ACS Medicinal Chemistry Letters, 2017)",
  "key": {"HepG2 cells": {"test_system": "HepG2 cells", "experiment": "HepG2 toxicity assay", "format": "cell-based", "conditions": "host cell toxicity"}, "[1]": {"experiment": "Human plasma protein binding", "format": "in vitro ADME", "conditions": "Table 1"}, "[2]": {"experiment": "Mouse pharmacokinetics, plasma and brain exposure", "format": "in vivo, female BALB/c mice", "conditions": "10 mg/kg i.p., for 4 h"}},
  "data": [
    {"compound": "COc1ccc(Nc2ccnc3ccc(-c4ccc(S(=O)(=O)N5CCOCC5)cc4)cc23)cc1C", "note": "[Compound 13k]", "values": [
      {"measurement": "HepG2 TC50", "setting": "HepG2 cells", "result": 9.0, "unit": "µM"}
    ]},
    {"compound": "O=S(=O)(c1ccc(-c2ccc3nccc(Nc4ccc(OCc5cccc(F)c5)cc4)c3c2)cc1)N1CCOCC1", "note": "[Compound 3]", "values": [
      {"measurement": "protein binding (% free)", "setting": "[1]", "result": "<0.03", "unit": "% free"}
    ]},
    {"compound": "O=S(=O)(c1ccc(-c2ccc3nccc(Nc4ccncn4)c3c2)cc1)N1CCOCC1", "note": "[Compound 13j, 6-(4-(morpholinosulfonyl)phenyl)-N-(pyrimidin-4-yl)quinolin-4-amine]", "values": [
      {"measurement": "plasma exposure relative to the EC50", "setting": "[2]", "result": "> 120", "unit": "fold"}
    ]}
  ]
}
